Test results reported in US4889634A, “Dialysate solution containing hydroxypropyl-beta-cyclodextrin and method of using same” (priority 1988, dated 1989).

How the values were obtained:
[1] = relative nephrotoxicity of HPBCD and BCD, intraperitoneal; assay type: in vivo, rat; settings: rat, in vivo, ip, BCD 0.75%
Experimental: (§1) A first study was conducted to determine the relative nephrotoxicity of HPBCD and BCD. A control group using phosphate buffer solution was also included in the study.
(§2) Three groups of normal rats were utilized in this study. […] Group I rats were given the vehicle solution of phosphate buffer saline (PBS). Group II rats were subdivided into three sub-groups. The first sub-group received a solution having a concentration of 1.5% HPBCD, the second sub-group received a solution having a concentration of 3% HPBCD while the third sub-group received a solution having a concentration of 6% HPBCD. Group III rats were given a solution having a concentration of 0.75% BCD.
(§3) Animals from each group were sacrificed at 24 and 72 hours after injection of the peritoneal solution. The animals were sacrificed under general anesthesia and exsanguinated from the abdominal aorta. Plasma was separated and blood urea nitrogen and creatinine was measured and used as an index of renal toxicity of the solutions.

normal rats = experiment: as above; assay type: in vivo, rat; settings: for Mortality (died/total): BCD 0.75% w/v, HPBCD 1.5 and 3% w/v, 15 ml/100 g i.p.; for Rats died of kidney failure: in words
Experimental: as §1, §2, §3

laboratory animals = settings: cited from earlier work
[2] = 1 day, BCD 0.75%, HPBCD 1.5 and 3%
[3] = 3 day, BCD 0.75%, HPBCD 1.5 and 3%

OC[C@H]1O[C@@H]2O[C@H]3[C@H](O)[C@@H](O)[C@@H](O[C@H]4[C@H](O)[C@@H](O)[C@@H](O[C@H]5[C@H](O)[C@@H](O)[C@@H](O[C@H]6[C@H](O)[C@@H](O)[C@@H](O[C@H]7[C@H](O)[C@@H](O)[C@@H](O[C@H]8[C@H](O)[C@@H](O)[C@@H](O[C@H]1[C@H](O)[C@H]2O)O[C@@H]8CO)O[C@@H]7CO)O[C@@H]6CO)O[C@@H]5CO)O[C@@H]4CO)O[C@@H]3CO [BCD, beta-cyclodextrin]
mortality at 24 h ([1]; 1d, n = 6): 16.7% | mortality at 72 h ([1]; 3d, n = 9): 77.8% | Mortality (died/total) (normal rats; 1 day): 1/6 | Kidney size (normal rats; [2]): enlarged | Kidney weight (normal rats; [2]): increased | BUN (normal rats; 1 day, BCD 0.75%, HPBCD 1.5 and 3%, Table III): 79.4 mg/dL | Mortality (died/total) (normal rats; 3 day): 8/9 | Kidney size (normal rats; [3]): enlarged | Kidney weight (normal rats; [3]): increased | BUN (normal rats; BCD 0.75%, 1d, n = 6): 79.4 mg/dL | Final body weight Wt (f) (normal rats; BCD 0.75%, 1d, n = 6): 218 g | Initial body weight Wt (i) (normal rats; BCD 0.75%, 1d, n = 6): 223 g | Left kidney weight (Lt kd) (normal rats; BCD 0.75%, 1d, n = 6): 1272 mg | Left kidney/body weight (Lt kd/wt) (normal rats; BCD 0.75%, 1d, n = 6): 5.83 mg/g | Right kidney weight (Rt kd) (normal rats; BCD 0.75%, 1d, n = 6): 1307 mg | Right kidney/body weight (Rt kd/wt) (normal rats; BCD 0.75%, 1d, n = 6): 5.98 mg/g | Rats died of kidney failure (normal rats; BCD 1d Group): One rat | Rats died of kidney failure (normal rats; BCD 3d Group (nine rats)): all but two of the nine rats | Renal toxicity (kidney enlargement, death) (laboratory animals; laboratory animals, reports in literature): enlargement of the kidneys and death due to kidney failure | Toxicity at high concentrations (laboratory animals; rat, in vivo): toxic | Removal of intravenously administered toxins (laboratory animals; rats, peritoneal dialysate, Perrin et al.): accelerate the removal of intravenously administered toxins in rats
